Results taken from patent US8497240B2 (priority 2006, dated 2013).
Several values for one entry are separate records, joined by “and”; a condition that tells them apart may be missing. Equal values may be shown once. Read-outs that look alike come from different tables or passages of the source. Ends that are not written are not given here.

Assays:
[1] = molecular target: T1, human GIP receptor (Homo sapiens, UniProt P48546); test: biochemical; assay type: binding
T1 construct: expressed in transfected cells; host or cells: HEK293 (HEK-GIPR), membranes
T1 sequence (P48546 22-466): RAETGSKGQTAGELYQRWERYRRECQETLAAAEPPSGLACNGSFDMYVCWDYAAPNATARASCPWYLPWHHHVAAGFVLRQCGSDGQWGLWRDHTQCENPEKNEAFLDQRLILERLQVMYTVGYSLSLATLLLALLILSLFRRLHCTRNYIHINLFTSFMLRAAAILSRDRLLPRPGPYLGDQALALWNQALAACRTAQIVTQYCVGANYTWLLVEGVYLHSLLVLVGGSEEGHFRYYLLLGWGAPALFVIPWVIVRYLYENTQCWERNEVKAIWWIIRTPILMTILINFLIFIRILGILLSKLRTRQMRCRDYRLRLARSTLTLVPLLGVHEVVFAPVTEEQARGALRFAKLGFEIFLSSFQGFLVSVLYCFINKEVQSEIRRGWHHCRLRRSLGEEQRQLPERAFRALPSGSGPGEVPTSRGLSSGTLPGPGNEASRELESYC

[2] = assay type: in vivo, NIH/Swiss mice
Experimental: (§1) In FIG. 3A, bars represent mean±sd, n=6-10. […] Gavage (1.5 g/kg) was given at t=0, Sample was taken at t=30 min. […] In FIG. 3B, points represent mean±sem, n=8-15.
Peptide was injected IP at t=−5 minutes into 4-hour fasted NIH/Swiss female mice. […] In FIG. 17 points represent mean+/−sem. […] Samples were taken at t=60, t=120 and t=180.

[3] = assay type: in vivo, NIH/Swiss mice; settings: for Basal Gluc. Low. 80 nmol/Kg / Basal Glucose Lowering at Peptide Conc. of 80 nmol/kg: AUC240; for basal glucose lowering (% maximal decrease): mouse, in vivo
Experimental: as §1
Points represent mean±sem.

[4] = IVGTT duration of action assay (single SC injection before glucose); assay type: in vivo, rat; settings: for Duration In The Rat IVGTT Assay: compared with 0601GIP3794 (794), dosed at −120 min
Experimental: To determine a duration of action using the IVGTT assay, the sample was injected SC as a single injection at one time point indicated (e.g., t=−240, −120, −60 or −30) prior to administration of glucose. IV glucose was given at t=0.

[5] = conscious rats, 100 μg; cited from earlier work
[6] = Intravenous glucose tolerance test (IVGTT), i.v. infusion; assay type: in vivo, rat; settings: for Standard IVGTT assay IV infusion (insulin AUC 0-30 min): IV infusion 100 pmol/min/kg; for Standard IVGTT assay IV infusion (insulin AUC 0-30 min) / IVGTT > = < Compared to 0601GIP3794: rat; for IVGTT > = < Compared to 0601GIP3794: in vivo
Experimental: In the typical IVGTT assays the test sample was administered by IV infusion. The IV infusion of sample was initiated at t=−30 min and continued through t=90. IV glucose was given at t=0. To determine a duration of action using the IVGTT assay, the sample was injected SC as a single injection at one time point indicated (e.g., t=−240, −120, −60 or −30) prior to administration of glucose. IV glucose was given at t=0.
As described, fed, isoflurane anesthetized HSD male rats were intubated and cannulated via femoral artery and vein and allowed to stabilize for 1 hour. […] At t=0, an i.v. bolus of 5.7 mmol/kg D-glucose was administered over 2 minutes. Samples for glucose measurement and insulin concentrations were taken at various time points before and after (0 to 90 minutes) glucose infusion.

[7] = read-out: (% Inh 10 nm, GIP-LF Assay)
[8] = read-out: GIP RBA (% Inh 10 nM)

Molecule | inhibition at 0.01 µM [1, 7] | OGTT/GL (%) ([2]; 30 nmol/kg) | Basal Gluc. Low. 80 nmol/Kg [3] | Duration In The Rat IVGTT Assay [4] | Basal Glucose Lowering at Peptide Conc. of 80 nmol/kg [3] | IVGTT > = < Compared to 0601GIP3794 [6] | also measured
CC[C@H](C)[C@H](NC(=O)[C@H](C)NC(=O)[C@H](CCCCN)NC(=O)[C@@H]1CCCN1C(=O)[C@H](CCCCN)NC(=O)[C@H](CCC(N)=O)NC(=O)[C@H](C)NC(=O)[C@H](CC(C)C)NC(=O)[C@H](CC(C)C)NC(=O)[C@H](Cc1c[nH]c2ccccc12)NC(=O)[C@H](CC(N)=O)NC(=O)[C@@H](NC(=O)[C@H](Cc1ccccc1)NC(=O)[C@H](CC(=O)O)NC(=O)[C@H](CCC(N)=O)NC(=O)[C@H](CCC(N)=O)NC(=O)[C@H](Cc1c[nH]cn1)NC(=O)[C@@H](NC(=O)[C@H](CCCCN)NC(=O)[C@H](CC(=O)O)NC(=O)[C@H](CCSC)NC(=O)[C@H](C)NC(=O)[C@@H](NC(=O)[C@H](CO)NC(=O)[C@H](Cc1ccc(O)cc1)NC(=O)[C@H](CC(=O)O)NC(=O)[C@H](CO)NC(=O)[C@@H](NC(=O)[C@H](Cc1ccccc1)NC(=O)[C@@H](NC(=O)CNC(=O)[C@H](CCC(=O)O)NC(=O)[C@@H](C)NC(=O)[C@@H](N)Cc1ccc(O)cc1)[C@@H](C)O)[C@@H](C)CC)[C@@H](C)CC)[C@@H](C)CC)C(C)C)C(=O)N[C@@H](CCCNC(=N)N)C(=O)N[C@@H](Cc1ccc(O)cc1)C(=O)N[C@@H](CO)C(N)=O [Compound 0601GIP4816] | 87.3% | −19%, | −9%, | <794@ −120 min | – | – | inhibition at 0.01 µM [1, 8]: 87.3%
CC[C@H](C)[C@H](NC(=O)[C@H](CO)NC(=O)[C@H](Cc1ccc(O)cc1)NC(=O)[C@H](CC(=O)O)NC(=O)[C@H](CO)NC(=O)[C@@H](NC(=O)[C@H](Cc1ccccc1)NC(=O)[C@@H](NC(=O)CNC(=O)[C@H](CCC(=O)O)NC(=O)[C@@H](C)NC(=O)[C@@H](N)Cc1ccc(O)cc1)[C@@H](C)O)[C@@H](C)CC)C(=O)N[C@@H](C)C(=O)N[C@@H](CCSC)C(=O)N[C@@H](CC(=O)O)C(=O)N[C@@H](CCCCN)C(=O)N[C@H](C(=O)N[C@@H](Cc1c[nH]cn1)C(=O)N[C@@H](CCC(N)=O)C(=O)N[C@@H](CCC(N)=O)C(=O)N[C@@H](CC(=O)O)C(=O)N[C@@H](Cc1ccccc1)C(=O)N[C@H](C(=O)N[C@@H](CC(N)=O)C(=O)N[C@@H](Cc1c[nH]c2ccccc12)C(=O)N[C@@H](CC(C)C)C(=O)N[C@@H](CC(C)C)C(=O)N[C@@H](C)C(=O)N[C@@H](CCC(N)=O)C(=O)N[C@@H](CCCCN)C(=O)N1CCC[C@H]1C(=O)N[C@@H](CCCCN)C(=O)N[C@@H](CO)C(=O)N[C@@H](C)C(=O)N[C@@H](CCCNC(=N)N)C(=O)N1CCC[C@H]1C(=O)N[C@@H](CO)C(N)=O)C(C)C)[C@@H](C)CC [Compound 0601GIP4821] | 93.5% | −28, % | −5%, | <794@ −120 min | – | – | inhibition at 0.01 µM [1, 8]: 93.5%
CC[C@H](C)[C@H](NC(=O)[C@H](CO)NC(=O)[C@H](Cc1ccc(O)cc1)NC(=O)[C@H](CC(=O)O)NC(=O)[C@H](CO)NC(=O)[C@@H](NC(=O)[C@H](Cc1ccccc1)NC(=O)[C@@H](NC(=O)CNC(=O)[C@H](CCC(=O)O)NC(=O)[C@@H](C)NC(=O)[C@@H](N)Cc1ccc(O)cc1)[C@@H](C)O)[C@@H](C)CC)C(=O)N[C@@H](C)C(=O)N[C@@H](CCSC)C(=O)N[C@@H](CC(=O)O)C(=O)N[C@@H](CCCCN)C(=O)N[C@H](C(=O)N[C@@H](Cc1c[nH]cn1)C(=O)N[C@@H](CCC(N)=O)C(=O)N[C@@H](CCC(N)=O)C(=O)N[C@@H](CC(=O)O)C(=O)N[C@@H](Cc1ccccc1)C(=O)N[C@H](C(=O)N[C@@H](CC(N)=O)C(=O)N[C@@H](Cc1c[nH]c2ccccc12)C(=O)N[C@@H](CC(C)C)C(=O)N[C@@H](CC(C)C)C(=O)N[C@@H](C)C(=O)N[C@@H](CCC(N)=O)C(=O)N[C@@H](CCCCN)C(=O)N1CCC[C@H]1C(=O)N[C@@H](CO)C(=O)N1CCC[C@H]1C(=O)N[C@@H](CCCCN)C(=O)N[C@@H](CCCCN)C(=O)N[C@H](C(=O)N[C@@H](CCCNC(=N)N)C(=O)N[C@@H](Cc1ccc(O)cc1)C(=O)N[C@@H](CO)C(N)=O)[C@@H](C)CC)C(C)C)[C@@H](C)CC [Compound 0601GIP4823] | 94.1% | – | −23%, | <794@ −120 min | – | – | inhibition at 0.01 µM [1, 8]: 94.1%
CC[C@H](C)[C@H](NC(=O)[C@H](CO)NC(=O)[C@H](Cc1ccc(O)cc1)NC(=O)[C@H](CC(=O)O)NC(=O)[C@H](CO)NC(=O)[C@@H](NC(=O)[C@H](Cc1ccccc1)NC(=O)[C@@H](NC(=O)CNC(=O)[C@H](CCC(=O)O)NC(=O)[C@@H](C)NC(=O)[C@@H](N)Cc1ccc(O)cc1)[C@@H](C)O)[C@@H](C)CC)C(=O)N[C@@H](C)C(=O)N[C@@H](CCSC)C(=O)N[C@@H](CC(=O)O)C(=O)N[C@@H](CCCCN)C(=O)N[C@H](C(=O)N[C@@H](Cc1c[nH]cn1)C(=O)N[C@@H](CCC(N)=O)C(=O)N[C@@H](CCC(N)=O)C(=O)N[C@@H](CC(=O)O)C(=O)N[C@@H](Cc1ccccc1)C(=O)N[C@H](C(=O)N[C@@H](CC(N)=O)C(=O)N[C@@H](Cc1c[nH]c2ccccc12)C(=O)N[C@@H](CC(C)C)C(=O)N[C@@H](CC(C)C)C(=O)N[C@@H](C)C(=O)N[C@@H](CCC(N)=O)C(=O)N[C@@H](CCCCN)C(=O)N1CCC[C@H]1C(=O)N[C@@H](CCCCN)C(=O)N[C@@H](CCC(N)=O)C(=O)N[C@H](C(=O)N[C@@H](CCCNC(=N)N)C(=O)N[C@@H](Cc1ccc(O)cc1)C(=O)N[C@@H](CO)C(N)=O)[C@@H](C)CC)C(C)C)[C@@H](C)CC [Compound 0601GIP4854] | 93.5% | −14, % | – | <794@ −120 min | – | – | –
CC[C@H](C)[C@H](NC(=O)[C@H](CO)NC(=O)[C@H](Cc1ccc(O)cc1)NC(=O)[C@H](CC(=O)O)NC(=O)[C@H](CO)NC(=O)[C@@H](NC(=O)[C@H](Cc1ccccc1)NC(=O)[C@@H](NC(=O)CNC(=O)[C@H](CCC(=O)O)NC(=O)[C@@H](C)NC(=O)[C@@H](N)Cc1ccc(O)cc1)[C@@H](C)O)[C@@H](C)CC)C(=O)N[C@@H](C)C(=O)N[C@@H](CCSC)C(=O)N[C@@H](CC(=O)O)C(=O)N[C@@H](CCCCN)C(=O)N[C@H](C(=O)N[C@@H](Cc1c[nH]cn1)C(=O)N[C@@H](CCC(N)=O)C(=O)N[C@@H](CCC(N)=O)C(=O)N[C@@H](CC(=O)O)C(=O)N[C@@H](Cc1ccccc1)C(=O)N[C@H](C(=O)N[C@@H](CC(N)=O)C(=O)N[C@@H](Cc1c[nH]c2ccccc12)C(=O)N[C@@H](CC(C)C)C(=O)N[C@@H](CC(C)C)C(=O)N[C@@H](C)C(=O)N[C@@H](CCC(N)=O)C(=O)N[C@@H](CCCCN)C(=O)N1CCC[C@H]1C(=O)N[C@@H](CCCCN)C(=O)N[C@@H](CCCCN)C(=O)N[C@@H](C)C(=O)N[C@@H](CCCNC(=N)N)C(=O)N[C@@H](Cc1ccc(O)cc1)C(=O)N[C@@H](CO)C(N)=O)C(C)C)[C@@H](C)CC [Compound 0601GIP4856] | 83.7% | −29, % | −3%, | <794@ −120 min | – | – | –
HSDGIFTDSYSRYRKQMAVKKYLAAVLGKRYKQRVKNK-NH2 [PACAP38] | – | – | – | – | – | – | inhibition of gastric emptying at doses of 100 μg [5]: either weakly active or inactive
Human GIP | – | – | – | – | – | – | Standard IVGTT assay IV infusion (insulin AUC 0-30 min) [6]: 226; Duration of action in assay (insulin AUC 0-30 min) ([4]; SC inj T = −30 min): 57
VIP: vasoactive intestinal peptide (HSDAVFTDNYTRLRKQMAVKKYLNSILN; ends and bridges not checked; UniProt P01282 125-152, looked up) | – | – | – | – | – | – | inhibition of gastric emptying at doses of 100 μg [5]: either weakly active or inactive
[dAla2, Leu14, Ala18, glu21] GIP-(1-30)-Exendin-4 (31-39) [Compound 0601GIP4285] | – | −17% and −17 30 nmol/kg, % | −2%, | – | −2%, AUC240 | = | OGTT/GL (%) ([2]; 350 nmol/kg): −10 350 nmol/kg %
[dAla2, Leu14, beta-Ala31, beta-Ala32] GIP-(1-32)-Exendin-4 (31-39) [Compound 0601GIP4179] | – | −24 30 nmol/kg, % | – | – | −17%, AUC240 | = | OGTT/GL (%) ([2]; 350 nmol/kg): −23 350 nmol/kg %
[dAla2]GIP-(1-30)-[Octylglycine 34] Exendin-4 (31-39) [Compound 0601GIP4252] | – | – | – | – | −7%, AUC240 | = | Standard IVGTT assay IV infusion (insulin AUC 0-30 min) [6]: 218
dAla2-GIP(1-42) acid form [Compound 0601GIP4042] | – | – | – | – | – | – | basal glucose lowering (% maximal decrease) [3]: −11%; insulinotropic response to an intravenous glucose challenge (IVGTT assay) ([6]; 100 pmol/kg/min infusion, rats): significant enhancement of the insulinotropic response
octylglycine-GIP(1-30)-Exendin-4-(31-39) [Compound 0601GIP4178] | – | – | – | – | −13%, AUC240 | < | OGTT/GL (%) ([2]; 350 nmol/kg): −20%; OGTT response ([2]; mouse, in vivo): −20%; basal glucose lowering (% maximal decrease) [3]: −20%; insulin levels prior to the glucose challenge ([6]; 100 pmol/kg/min infusion, rats): significant rise in insulin levels; insulinotropic response to an intravenous glucose challenge (IVGTT assay) ([6]; 100 pmol/kg/min infusion, rats): diminished insulinotropic response
